Data on 23 molecules can be found in patent US6750222B2, “Substituted phenyl derivatives” (Bayer CropScience GmbH, priority 2001, dated 2004).

The structures appear in SMILES notation.

The test system of data set [1] is Sinapis alba, Chrysanthemum segetum, Avena sativa, Stellaria media, Echinochloa crus-galli, Lolium multiflorum, Setaria spp., Abutilon theophrasti, Amaranthus …. As to the kind of experiment: Pre-emergence effect on weeds (greenhouse pot test). Format: in vivo, monocotyledonous and dicotyledonous weed plants. The settings on record: application rate of 2 kg and less of active substance per hectare; scored visually after 3 to 4 weeks by comparison with untreated controls. The text has this: 1. Pre-Emergence Effect on Weeds
Seeds or rhizome pieces of monocotyledonous and dicotyledonous weed plants were placed in sandy loam soil in cardboard pots and covered with soil. The compounds according to the invention which were formulated in the form of wettable powders or emulsion concentrates were then applied to the surface of the soil cover in the form of aqueous suspensions or emulsions at an application rate of 600 to 800 l of water/ha (converted), in various dosages.
After the treatment, the pots were placed in a greenhouse and kept under good growth conditions for the weeds. After the test plants had emerged, the damage to the plants or the negative effect on the emergence was scored visually after a test period of 3 to 4 weeks by comparison with untreated controls. As shown by the test results, compounds according to the invention have good herbicidal pre-emergence activity against a broad spectrum of weed grasses and broad-leafed weeds.

Data set [2] relates to Sinapis alba, Echinochloa crus-galli, Lolium multiflorum, Chrysanthemum segetum, Avena sativa, Stellaria media, Setaria spp., Abutilon theophrasti, Amaranthus …. As to the kind of experiment: Post-emergence effect on weeds (greenhouse pot test). The settings on record: application rate of 2 kg and less of active substance per hectare; treated at three-leaf stage; scored visually after about 3 to 4 weeks by comparison with untreated controls. Format: in vivo, monocotyledonous and dicotyledonous weeds. As for the experimental part:
2. Post-Emergence Effect on Weeds
Seeds or rhizome pieces of monocotyledonous and dicotyledonous weeds were placed in sandy loam soil in plastic pots, covered with soil and grown in a greenhouse under good growth conditions. Three weeks after sowing, the test plants were treated at the three-leaf stage. The compounds according to the invention which were formulated as wettable powders or emulsion concentrates were sprayed, at various dosages, onto the green parts of the plants at an application rate of 600 to 800 l of water/ha (converted). After the test plants had remained in the greenhouse for about 3 to 4 weeks under ideal growth conditions, the effect of the preparations was scored visually by comparison with untreated controls. The agents according to the invention also have good herbicidal activity post-emergence against a broad spectrum of economically important weed grasses and broad-leafed weeds.

On to `Cn1nc(C(F)(F)F)cc1Oc1cc(C#N)cc(C#N)c1` [Example 1140a], for which the “herbicidal activity against harmful plants pre-emergence” value in data set [1] is given as “very good herbicidal activity”. For the same molecule, in data set [2], the “herbicidal activity against harmful plants post-emergence” value is “very good herbicidal activity”.
For `N#Cc1cc(F)cc(Oc2csc(C(F)(F)F)c2)c1` [Example 1136c], the “herbicidal activity against harmful plants pre-emergence” value in data set [1] is recorded as “very good herbicidal activity”. In addition, the “herbicidal activity against harmful plants post-emergence” value in data set [2] is reported as “very good herbicidal activity”.
As to `COCCCOc1cc(C#N)cc(Oc2cc(C(F)(F)F)nn2C)c1` [Example 1177a], the “herbicidal activity against harmful plants pre-emergence” value in data set [1] is given as “very good herbicidal activity”. Also, the “herbicidal activity against harmful plants post-emergence” value in data set [2] is “very good herbicidal activity”.
`Cn1nc(C(F)(F)F)cc1Oc1cc(C#N)cc(-n2ccc(C(F)(F)F)n2)c1` [Example 1161a]: in data set [1], the “herbicidal activity against harmful plants pre-emergence” value is “very good herbicidal activity”. For the same molecule, the “herbicidal activity against harmful plants post-emergence” value in data set [2] is recorded as “very good herbicidal activity”.
Turning to `CC(C)OCCOc1cc(C#N)cc(Oc2cc(C(F)(F)F)nn2C)c1` [Example 1169a], the “herbicidal activity against harmful plants pre-emergence” value in data set [1] is “very good herbicidal activity”. Also, the “herbicidal activity against harmful plants post-emergence” value in data set [2] is recorded as “very good herbicidal activity”.
What is called melting point is the temperature of the solid-liquid transition. `Cn1nc(C(F)(F)F)cc1Oc1cc(C#N)cc(Oc2cc(C(F)(F)F)nn2C)c1` [Chemical Example 1, 3,5-Bis-(1-methyl-3-trifluoromethylpyrazol-5-yloxy)benzonitrile]: the melting point was 139 °C.
Turning to `Cn1nc(C(F)(F)F)cc1Oc1cc(C#N)cc(Oc2cc(C(F)(F)F)n(C)n2)c1` [Example 75a], the “herbicidal activity against harmful plants pre-emergence” value in data set [1] was “very good herbicidal activity”. In data set [2], the “herbicidal activity against harmful plants post-emergence” value was “very good herbicidal activity”.
As to `N#Cc1cc(Oc2ccnc(C(F)(F)F)c2)cc(Oc2ccnc(C(F)(F)F)c2)c1` [Example 73d], in data set [1], the “herbicidal activity against harmful plants pre-emergence” value is recorded as “very good herbicidal activity”. For the same molecule, the “herbicidal activity against harmful plants post-emergence” value in data set [2] is recorded as “very good herbicidal activity”.
On to `Cn1nc(C(F)(F)F)cc1Oc1cc(C#N)cc(Oc2cccc(C(F)(F)F)c2)c1` [Example 62a], for which, in data set [1], the “herbicidal activity against harmful plants pre-emergence” value is reported as “very good herbicidal activity”. Moreover, the “herbicidal activity against harmful plants post-emergence” value in data set [2] is “very good herbicidal activity”.
Consider `Cn1nc(C(F)(F)F)cc1Oc1cc(F)cc(C#N)c1` [Example 1136a], for which the “herbicidal activity against harmful plants pre-emergence” value in data set [1] is given as “very good herbicidal activity”. Besides, in data set [2], the “herbicidal activity against harmful plants post-emergence” value is recorded as “very good herbicidal activity”.
On to `N#Cc1cc(Oc2cccc(C(F)(F)F)c2)cc(Oc2cccc(C(F)(F)F)c2)c1` [Example 62b], for which the “herbicidal activity against harmful plants pre-emergence” value in data set [1] is given as “very good herbicidal activity”. Further, the “herbicidal activity against harmful plants post-emergence” value in data set [2] is “very good herbicidal activity”.
Molecule `Cn1nc(C(F)(F)F)cc1Oc1cc(C#N)cc(-n2ccc(C(F)(F)F)n2)c1` [Chemical Example 5, 3-(1-Methyl-3-trifluoromethylpyrazol-5-yloxy)-5-(3-trifluoromethylpyrazol-1-yl)benzonitrile] had a melting point of 116 to 117 °C.
The same measure, in the same setting: as for `Cn1nc(C(F)(F)F)cc1Oc1cc(F)cc(C#N)c1` [Chemical Example 2, 3-Fluoro-5-(1-methyl-3-trifluoromethylpyrazol-5-yloxy)benzonitrile], the figure is 84 °C.
In the case of `Cn1nc(C(F)(F)F)cc1Oc1cc(Oc2cc(C(F)(F)F)nn2C)cc(C(N)=O)c1` [Example 77a], in data set [1], the “herbicidal activity against harmful plants pre-emergence” value was “very good herbicidal activity”. The “herbicidal activity against harmful plants post-emergence” value in data set [2] was “very good herbicidal activity”.
As to `Cn1nc(C(F)(F)F)cc1Oc1cc(F)cc([N+](=O)[O-])c1` [Example 1156a], the “herbicidal activity against harmful plants pre-emergence” value in data set [1] is on record as “very good herbicidal activity”. Besides, the “herbicidal activity against harmful plants post-emergence” value in data set [2] is reported as “very good herbicidal activity”.
Consider `N#Cc1cc(C#N)cc(Oc2csc(C(F)(F)F)c2)c1` [Example 1140c], for which the “herbicidal activity against harmful plants pre-emergence” value in data set [1] is “very good herbicidal activity”. The “herbicidal activity against harmful plants post-emergence” value in data set [2] was “very good herbicidal activity”.
`N#Cc1cc(Oc2csc(C(F)(F)F)c2)cc(Oc2csc(C(F)(F)F)c2)c1` [Example 74c]: the “herbicidal activity against harmful plants pre-emergence” value in data set [1] was “very good herbicidal activity”. Also, in data set [2], the “herbicidal activity against harmful plants post-emergence” value was “very good herbicidal activity”.
Regarding `Cn1nc(C(F)(F)F)cc1Oc1cc(C#N)cc(OCC2COC(C)(C)O2)c1` (stereo not shown) [Example 1182a], in data set [1], the “herbicidal activity against harmful plants pre-emergence” value is reported as “very good herbicidal activity”. The “herbicidal activity against harmful plants post-emergence” value in data set [2] was “very good herbicidal activity”.
Take `Cn1nc(C(F)(F)F)cc1Oc1cc(Oc2cc(C(F)(F)F)nn2C)cc([N+](=O)[O-])c1` [Example 397a]: the “herbicidal activity against harmful plants pre-emergence” value in data set [1] is given as “very good herbicidal activity”. In data set [2], the “herbicidal activity against harmful plants post-emergence” value is listed as “very good herbicidal activity”.
Take `CCOCCOCCOc1cc(C#N)cc(Oc2cc(C(F)(F)F)nn2C)c1` [Example 1171a]: in data set [1], the “herbicidal activity against harmful plants pre-emergence” value is given as “very good herbicidal activity”. In data set [2], the “herbicidal activity against harmful plants post-emergence” value is “very good herbicidal activity”.
Turning to `N#Cc1cc(C#N)cc(Oc2ccnc(C(F)(F)F)c2)c1` [Example 1140d], the “herbicidal activity against harmful plants pre-emergence” value in data set [1] is reported as “very good herbicidal activity”. The “herbicidal activity against harmful plants post-emergence” value in data set [2] is on record as “very good herbicidal activity”.
`Cn1nc(C(F)(F)F)cc1Oc1cc(C#N)cc(OCC2CCCO2)c1` (stereo not shown) [Example 1180a]: the “herbicidal activity against harmful plants pre-emergence” value in data set [1] is reported as “very good herbicidal activity”. Further, the “herbicidal activity against harmful plants post-emergence” value in data set [2] is given as “very good herbicidal activity”.
On to `Cn1nc(C(F)(F)F)cc1Oc1cc(C#N)cc(Oc2cc(C(F)(F)F)nn2C)c1` [Example 76a], for which the “herbicidal activity against harmful plants pre-emergence” value in data set [1] is recorded as “very good herbicidal activity”. The “herbicidal activity against harmful plants post-emergence” value in data set [2] is “very good herbicidal activity”.
